Assay results reported in US3963756A, “Derivatives of 6-methyl-2H-pyran-2,4(3H)-dione” (Zaidan Hojin Biseibutsu Kagaku Kenkyu Kai, priority 1972, dated 1976).

Key:
[1] = biological target: T1, Tyrosine Hydroxylase (Bos taurus, UniProt P17289); experiment: Inhibition of tyrosine hydroxylase (TH); type: biochemical; conditions: for inhibition at 100 µg/mL: 100 mcg/cc; for inhibition at 200 µg/mL: 200 mcg/cc
T1 sequence (P17289 1-491): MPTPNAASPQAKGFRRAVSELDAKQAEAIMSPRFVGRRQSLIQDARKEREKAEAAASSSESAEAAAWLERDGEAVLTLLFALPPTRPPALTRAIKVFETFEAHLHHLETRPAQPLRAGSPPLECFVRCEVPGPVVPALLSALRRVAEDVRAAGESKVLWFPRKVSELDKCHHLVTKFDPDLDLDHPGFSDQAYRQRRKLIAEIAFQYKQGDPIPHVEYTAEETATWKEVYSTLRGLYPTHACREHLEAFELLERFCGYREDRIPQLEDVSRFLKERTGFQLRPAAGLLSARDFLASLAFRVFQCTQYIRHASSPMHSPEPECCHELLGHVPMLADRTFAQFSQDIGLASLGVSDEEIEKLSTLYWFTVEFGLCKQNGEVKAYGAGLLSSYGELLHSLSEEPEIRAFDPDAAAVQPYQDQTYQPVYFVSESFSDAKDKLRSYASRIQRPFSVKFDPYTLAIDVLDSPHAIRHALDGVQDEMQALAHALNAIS
Text: (§1) The new compounds of the present invention have been examined for their biological activities, and their inhibition to tyrosine hydroxylase and dopamine β-hydroxylase are summarized below in Table 2. The details of the test methods used and the close relationship and reliable correlation of biological activities between in vitro and in vivo test results are well documented in the literature, e.g. J. Antibiot. 23: 514 (1970); Biochem. Pharmacol., 19: 35 (1970); and J. Am. Chem. Soc. 93: 1285 (1971). […] The effects of this compound on tyrosine hydroxylase and dopamine β-hydroxylase were also tested by the methods described in the Journal of Antibiotics 23:514 (1970) and Biochem. Pharmacol. 19:35 (1970), respectively.
(§2) The chemical structure of the products [I], solvent for hydrogenation and solvent for recrystallization are summarised in Table 1, and the yields of the products [I] are also shown in Table 1 together with their melting points, elemental analysis data, Inhibition (%) of tyrosine hydroxylase (TH) and Inhibition (%) to dopamine β-hydroxylase (DH) at different concentrations of the products [I] of 100 mcg/cc and 200 mcg/cc.

[2] = biological target: T2, Dopamine β-Hydroxylase (Bos taurus, UniProt P15101); experiment: Inhibition of dopamine β-hydroxylase (DH); type: biochemical; conditions: 200 mcg/cc
T2 sequence (P15101 1-610): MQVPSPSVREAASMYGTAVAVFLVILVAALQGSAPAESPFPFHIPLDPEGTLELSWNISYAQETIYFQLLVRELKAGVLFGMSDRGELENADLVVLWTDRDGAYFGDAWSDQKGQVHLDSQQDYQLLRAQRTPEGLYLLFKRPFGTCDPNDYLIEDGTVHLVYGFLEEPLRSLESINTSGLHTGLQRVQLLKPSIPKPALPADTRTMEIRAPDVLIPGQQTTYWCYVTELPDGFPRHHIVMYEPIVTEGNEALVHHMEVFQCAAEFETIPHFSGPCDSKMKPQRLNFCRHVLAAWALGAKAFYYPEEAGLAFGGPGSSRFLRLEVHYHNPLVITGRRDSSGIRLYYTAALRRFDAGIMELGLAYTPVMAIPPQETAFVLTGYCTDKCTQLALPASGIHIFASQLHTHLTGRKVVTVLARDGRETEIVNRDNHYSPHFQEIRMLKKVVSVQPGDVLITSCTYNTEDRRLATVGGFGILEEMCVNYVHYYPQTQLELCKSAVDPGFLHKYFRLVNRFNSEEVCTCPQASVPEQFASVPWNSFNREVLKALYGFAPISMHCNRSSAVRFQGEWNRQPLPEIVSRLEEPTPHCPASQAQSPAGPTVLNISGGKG
Text: as §1, §2

Structure (SMILES)	inhibition at 100 µg/mL [1] [%]	inhibition at 200 µg/mL [1] [%]	inhibition at 200 µg/mL [2] [%]
COc1ccc(CCC(=O)C2C(=O)C=C(C)OC2=O)cc1 (stereo not shown) [Example 1, 3-(4-methoxyhydrocinnamoyl)-6-methyl-2H-pyran-2,4(3H)-dione]	40.7	47.9	35
COc1ccc(CCC(=O)C2C(=O)C=C(C)OC2=O)cc1O (stereo not shown) [Example 2, 3-(3-hydroxy-4-methoxyhydrocinnamoyl)-6-methyl-2H-pyran-2,4(3H)-dione]	80.8	93.9	67
CC1=CC(=O)C(C(=O)CCc2ccc3c(c2)OCO3)C(=O)O1 (stereo not shown) [Example 3, 3-(3,4-methylenedioxyhydrocinnamoyl)-6-methyl-2H-pyran-2,4(3H)-dione]	13.7	18.5	86.7
CC1=CC(=O)C(C(=O)CCc2cccc(O)c2)C(=O)O1 (stereo not shown) [Example 4]	64.7	67.2	81.7
CC1=CC(=O)C(C(=O)CCc2ccc(Cl)cc2)C(=O)O1 (stereo not shown) [Example 5]	66	64.8	84.4
CC1=CC(=O)C(C(=O)CCc2ccc(Cl)c(Cl)c2)C(=O)O1 (stereo not shown) [Example 6]	54.6	61	90.4
CC1=CC(=O)C(C(=O)CCc2ccc(O)cc2)C(=O)O1 (stereo not shown) [Example 7]	65.2	70.6	77.7
CC1=CC(=O)C(C(=O)CCc2ccc(C#N)cc2)C(=O)O1 (stereo not shown) [Example 8]	81.4	84.5	77.5
CC1=CC(=O)C(C(=O)CCc2ccc(O)c(O)c2)C(=O)O1 (stereo not shown) [Example 9]	80.6	93.5	20.6
CC1=CC(=O)C(C(=O)CCc2cccc(Cl)c2)C(=O)O1 (stereo not shown) [Example 10]	12.7	26.5	95
CCOc1ccc(CCC(=O)C2C(=O)C=C(C)OC2=O)cc1 (stereo not shown) [Example 11]	–	10.1	6
CC1=CC(=O)C(C(=O)CCCCc2ccccc2)C(=O)O1 (stereo not shown) [Example 12]	33.7	–	85.8
CC1=CC(=O)C(C(=O)CCc2ccccc2O)C(=O)O1 (stereo not shown) [Example 13]	44.4	59.5	52.5
COC(=O)c1ccc(CCC(=O)C2C(=O)C=C(C)OC2=O)cc1 (stereo not shown) [Example 14, 3-(4-methoxycarbonylhydrocinnamoyl)-6-methyl-2H-pyran-2,4(3H)-dione]	13	15	54.9
COc1cccc(CCC(=O)C2C(=O)C=C(C)OC2=O)c1O (stereo not shown) [Example 15]	20.9	29.9	–
CC1=CC(=O)C(C(=O)CCc2ccc(N(C)C)cc2)C(=O)O1 (stereo not shown) [Example 16]	23	26.1	–
CC1=CC(=O)C(C(=O)CCc2ccccc2Cl)C(=O)O1 (stereo not shown) [Example 17]	37.1	48.4	89.8

Structure (SMILES)	inhibition at 100 µg/mL [1] [%]	inhibition at 200 µg/mL [1] [%]	inhibition at 200 µg/mL [2] [%]
COc1ccccc1CCC(=O)C1C(=O)C=C(C)OC1=O (stereo not shown) [Example 18]	32	–	98.3
COc1cc(CCC(=O)C2C(=O)C=C(C)OC2=O)ccc1O (stereo not shown) [Example 19]	14.6	26	29.6
CC1=CC(=O)C(C(=O)CCc2ccc(C(C)C)cc2)C(=O)O1 (stereo not shown) [Example 20]	16.8	25.5	94.5
COc1cccc(CCC(=O)C2C(=O)C=C(C)OC2=O)c1OC (stereo not shown) [Example 21]	39	–	74.7
CCOc1cc(CCC(=O)C2C(=O)C=C(C)OC2=O)ccc1O (stereo not shown) [Example 22]	22.7	24.4	61.5
CC1=CC(=O)C(C(=O)CCc2c(C)cc(C)cc2C)C(=O)O1 (stereo not shown) [Example 23]	8.7	–	28.9
CC1=CC(=O)C(C(=O)CCc2ccco2)C(=O)O1 (stereo not shown) [Example 24, 3-[3-(2-furyl)propanoyl]-6-methyl-2H-pyran-2,4(3H)-dione]	44.7	45.5	60.3
COc1cccc(CCC(=O)C2C(=O)C=C(C)OC2=O)c1 (stereo not shown) [Example 25]	32	34.9	83.5
CC1=CC(=O)C(C(=O)CCc2cccc(Br)c2)C(=O)O1 (stereo not shown) [Example 26]	11.3	19.8	97
COc1ccc(CCC(=O)C2C(=O)C=C(C)OC2=O)c(OC)c1 (stereo not shown) [Example 27]	20	26	44.9
CC1=CC(=O)C(C(=O)CCc2ccc(Cl)cc2Cl)C(=O)O1 (stereo not shown) [Example 28]	29.8	29.1	100
CC1=CC(=O)C(C(=O)CCc2ccc(C)cc2)C(=O)O1 (stereo not shown) [Example 29, 3-(4-methylhydrocinnamoyl)-6-methyl-2H-pyran-2,4(3H)-dione]	52.5	52.6	85
CC1=CC(=O)C(C(=O)CCc2ccc(C)o2)C(=O)O1 (stereo not shown) [Example 30]	23.5	–	100
CC1=CC(=O)C(C(=O)CCc2ccc(F)cc2)C(=O)O1 (stereo not shown) [Example 31]	60.1	–	42
CC1=CC(=O)C(C(=O)CCc2ccc(C(F)(F)F)cc2)C(=O)O1 (stereo not shown) [Example 32]	50.4	–	88
CC1=CC(=O)C(C(=O)CCc2ccc(C(N)=O)cc2)C(=O)O1 (stereo not shown) [Example 33]	20.5	–	30.3
CC1=CC(=O)C(C(=O)CCc2cc(Cl)cc(Cl)c2O)C(=O)O1 (stereo not shown) [Example 34]	53.6	69.3	82.3
